The target in experiment [1] is T1, L1077P (Homo sapiens, UniProt P13569, L1077P).
T1 construct: host or cells: FRT cells
In words: Short-circuit current in FRT cells expressing L1077P-CFTR. Format: cell-based. The note with it: 20 μM forskolin, 5 μM VX-770, 20 μM ASP-11. As to the method: (§1) Short-circuit current was measured on cells cultured on permeable supports (Corning) as described (Haggie, 2017; Phuan, 2018). For FRT cells, the basolateral membrane was permeabilized with 250 μg/mL amphotericin B, and experiments were done using a HCO3^−-buffered system (in mM: 120 NaCl, 5 KCl, 1 MgCl2, 1 CaCl2), 5 Hepes, 25 NaHCO3, 10 glucose, pH 7.4) with a basolateral to apical chloride gradient (60 mM NaCl replaced by sodium gluconate in the apical solution). For human airway epithelial cells, symmetrical HCO3^−-buffered solutions (containing 120 mM NaCl) were used. Cells were equilibrated with 95% O2, 5% CO2 and maintained at 37° C. Hemichambers were connected to a DVC-1000 voltage clamp (World Precision Instruments Inc., Sarasota, Fla.) via Ag/AgCl electrodes and 3 M KCl agar bridges for recording of the short-circuit current.

In experiment [2] the target is T2, R560T (Homo sapiens, UniProt P13569, R560T).
T2 construct: host or cells: FRT cells
The experiment can be described thus: Short-circuit current in FRT cells expressing R560T-CFTR. It counts as cell-based. As to conditions: 20 μM forskolin, 5 μM VX-770, 20 μM ASP-11. As to the method:
as §1

Experiment [3] has as its target T3, M1101K (Homo sapiens, UniProt P13569, M1101K).
T3 construct: host or cells: FRT cells
The experiment can be described thus: Short-circuit current in FRT cells expressing M1101K-CFTR. It counts as cell-based. The note with it: 20 μM forskolin, 5 μM VX-770, 20 μM ASP-11. How it is done:
as §1

Experiment [4] addresses T4, R334W (Homo sapiens, UniProt P13569, R334W).
T4 construct: host or cells: FRT cells
The experiment can be described thus: Short-circuit current in FRT cells expressing R334W-CFTR. The note with it: 20 μM forskolin, 5 μM VX-770, 20 μM ASP-11. Format: cell-based. As to the method:
as §1

In experiment [5] the target is T5, R1162X-CFTR (Homo sapiens, UniProt P13569).
T5 construct: the C-terminus PTC mutant R1162X-CFTR (predicted to truncate CFTR just after MSD2); host or cells: FRT cells
In words: Short-circuit current in FRT cells expressing R1162X-CFTR. As to conditions: 20 μM forskolin, 5 μM VX-770, 20 μM ASP-11, 3 μM VX-809. Format: cell-based. How it is done: as §1

For experiment [6], the target named is T6, N1303K-CFTR (Homo sapiens, UniProt P13569, N1303K). The experiment can be described thus: Short-circuit current in FRT cells expressing N1303K-CFTR. On the set-up: expressed in transfected cells; host or cells: Fischer rat thyroid (FRT) cells. Format: cell-based.
Experiment [7] addresses T7, S492F-CFTR (Homo sapiens, UniProt P13569, S492F).
T7 construct: host or cells: FRT cells
The experiment can be described thus: Short-circuit current in FRT cells expressing S492F-CFTR. Format: cell-based. The note with it: 20 μM forskolin, 5 μM VX-770, 20 μM ASP-11, 3 μM VX-809 pretreatment. As to the method:
as §1

Experiment [8] has as its target G551D-CFTR (Homo sapiens, UniProt P13569, G551D). The note with it: cited from earlier work.
For experiment [9], the target named is T8, W1282C-CFTR (Homo sapiens, UniProt P13569, W1282C).
T8 construct: introduced into full-length CFTR cDNA in the vector pcDNA3.1/Zeo (+); expressed in transfected cells; host or cells: FRT cells, pIRESpuro3 vector, puromycin-selected clonal lines
In words: Short-circuit current in FRT cells expressing W1282C-CFTR. Format: cell-based. The note with it: predicted W1282X read-through product. As to the method:
(§2) Compounds that promote read-through of PTCs to generate full-length CFTR have shown limited efficacy in cell culture studies (14-16). Though the read-through drug ataluren (PTC124) was ineffective in clinical trials (17), newer compounds are in development. The ability of ASP-11 to activate chloride current in predicted W1282X-CFTR read-through products was investigated. […] FRT cell lines were generated that stably expressing W1282L-, W1282C- and W1282R-CFTR.
as §1

For experiment [10], the target named is T6, N1303K-CFTR. Also noted: expressed in transfected cells; host or cells: Fischer rat thyroid (FRT) cells. The note with it: ASP-11 in combination with VX-770; transfected FRT cells; cited from earlier work.
The target in experiment [11] is T9, W1282X-CFTR (Homo sapiens, UniProt P13569).
T9 construct: CFTR1281 (the truncation product generated by W1282X-CFTR); expressed in transfected cells
The note with it: ASP-11 in combination with VX-770; truncated W1282X-CFTR product (CFTR1281); cited from earlier work.

The target in experiment [12] is T10, Q1313X-CFTR (Homo sapiens, UniProt P13569).
T10 construct: several truncated forms of CFTR resulting from premature termination codons (PTCs) located in NBD2; expressed in transfected cells; host or cells: FRT cells, pIRESpuro3 vector, puromycin-selected clonal lines
The experiment can be described thus: Short-circuit current in FRT cells expressing Q1313X-CFTR. It counts as cell-based. As to conditions: 20 μM ASP-11 with 5 μM VX-770, 20 μM forskolin. The gist of the method: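 FRT cells on permeable supports; basolateral membrane permeabilized with 250 μg/mL amphotericin B; HCO3^−-buffered solution, pH 7.4, 37° C, 95% O2/5% CO2, with basolateral-to-apical chloride gradient (60 mM apical NaCl replaced by gluconate). Short-circuit current recorded under voltage clamp; EC50 by nonlinear regression, single-site model.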

Experiment [13] deals with I1234del-CFTR (Homo sapiens, UniProt P13569, DEL1234-1239). In words: Short-circuit current in FRT cells expressing I1234del-CFTR. Format: cell-based. On the set-up: introduced into full-length CFTR cDNA in the vector pcDNA3.1/Zeo (+); expressed in transfected cells; host or cells: FRT cells, pIRESpuro3 vector, puromycin-selected clonal lines. As to conditions: 20 μM ASP-11 with 5 μM VX-770, 20 μM forskolin. As to the method: as §1
GraphPad Prism software (GraphPad Inc., San Diego, Calif., USA) was used for statistical analysis. EC50 values were determined by non-linear regression to a single-site inhibition model. Statistical significance was determined using unpaired Student's t test, with P<0.05 considered significant.
Compound 2i was also tested on a second minimal function CFTR mutation, I1234del-CFTR, which is generated by the c.3700A>G mutation that results in deletion of 6 amino acids from the CFTR polypeptide (p.Ile1234_Arg1239del-CFTR, hereafter termed I1234del-CFTR) due to introduction of a cryptic splice site in the CFTR transcript.

The target in experiment [14] is T11, V520F (Homo sapiens, UniProt P13569, V520F).
T11 construct: host or cells: FRT cells
In words: Short-circuit current in FRT cells expressing V520F-CFTR. Format: cell-based. The note with it: 20 μM forskolin, 5 μM VX-770, 20 μM ASP-11. How it is done: as §1

Experiment [15] deals with T12, W1282L-CFTR (Homo sapiens, UniProt P13569, W1282L).
T12 construct: introduced into full-length CFTR cDNA in the vector pcDNA3.1/Zeo (+); expressed in transfected cells; host or cells: FRT cells, pIRESpuro3 vector, puromycin-selected clonal lines
The experiment can be described thus: Short-circuit current in FRT cells expressing W1282L-CFTR. As to conditions: predicted W1282X read-through product. Format: cell-based. As to the method:
as §2, §1

T6 sequence (P13569 whole entry N1303K): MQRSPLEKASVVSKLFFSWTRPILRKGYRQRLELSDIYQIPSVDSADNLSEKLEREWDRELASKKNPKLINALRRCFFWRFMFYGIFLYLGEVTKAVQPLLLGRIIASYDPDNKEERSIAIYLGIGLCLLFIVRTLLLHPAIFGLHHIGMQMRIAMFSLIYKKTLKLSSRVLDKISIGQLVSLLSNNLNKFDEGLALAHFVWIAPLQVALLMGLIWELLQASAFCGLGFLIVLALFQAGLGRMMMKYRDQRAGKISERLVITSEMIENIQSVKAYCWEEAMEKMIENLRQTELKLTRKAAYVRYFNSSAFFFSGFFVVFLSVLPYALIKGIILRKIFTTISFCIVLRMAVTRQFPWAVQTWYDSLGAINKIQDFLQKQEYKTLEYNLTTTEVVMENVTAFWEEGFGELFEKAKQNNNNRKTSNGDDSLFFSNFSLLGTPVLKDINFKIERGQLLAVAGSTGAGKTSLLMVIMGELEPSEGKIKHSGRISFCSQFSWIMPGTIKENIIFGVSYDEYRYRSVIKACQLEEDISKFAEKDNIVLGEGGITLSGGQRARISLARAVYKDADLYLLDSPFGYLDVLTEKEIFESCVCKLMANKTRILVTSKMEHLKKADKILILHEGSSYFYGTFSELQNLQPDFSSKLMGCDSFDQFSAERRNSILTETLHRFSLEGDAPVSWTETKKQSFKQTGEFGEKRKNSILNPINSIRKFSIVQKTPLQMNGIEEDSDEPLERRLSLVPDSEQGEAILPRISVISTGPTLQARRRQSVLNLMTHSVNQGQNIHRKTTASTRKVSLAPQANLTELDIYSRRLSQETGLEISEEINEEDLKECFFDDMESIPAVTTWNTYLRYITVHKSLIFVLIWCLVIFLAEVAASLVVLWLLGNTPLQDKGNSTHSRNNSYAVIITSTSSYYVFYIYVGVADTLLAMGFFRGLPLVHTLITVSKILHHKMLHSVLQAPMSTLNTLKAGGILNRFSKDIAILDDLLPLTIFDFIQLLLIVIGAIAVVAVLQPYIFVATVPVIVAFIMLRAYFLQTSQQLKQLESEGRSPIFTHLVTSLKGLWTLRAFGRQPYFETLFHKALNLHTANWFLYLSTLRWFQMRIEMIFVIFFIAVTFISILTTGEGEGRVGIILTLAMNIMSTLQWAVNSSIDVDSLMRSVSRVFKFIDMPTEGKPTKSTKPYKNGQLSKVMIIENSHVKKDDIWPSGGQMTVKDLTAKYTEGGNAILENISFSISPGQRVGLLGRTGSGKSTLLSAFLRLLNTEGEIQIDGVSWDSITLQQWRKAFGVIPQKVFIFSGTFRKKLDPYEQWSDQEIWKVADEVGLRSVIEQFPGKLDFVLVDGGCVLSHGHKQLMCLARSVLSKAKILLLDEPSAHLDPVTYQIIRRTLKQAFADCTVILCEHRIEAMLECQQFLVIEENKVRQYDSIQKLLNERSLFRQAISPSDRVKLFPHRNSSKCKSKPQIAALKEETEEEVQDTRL
Sequence of G551D-CFTR (P13569 whole entry G551D): as the sequence (P13569 whole entry N1303K) above, with G551D, K1303N counted along it
T4 sequence (P13569 whole entry R334W): as the sequence (P13569 whole entry N1303K) above, with R334W, K1303N counted along it
T2 sequence (P13569 whole entry R560T): as the sequence (P13569 whole entry N1303K) above, with R560T, K1303N counted along it
T7 sequence (P13569 whole entry S492F): as the sequence (P13569 whole entry N1303K) above, with S492F, K1303N counted along it
T10 sequence (P13569 1-1312 limits assumed): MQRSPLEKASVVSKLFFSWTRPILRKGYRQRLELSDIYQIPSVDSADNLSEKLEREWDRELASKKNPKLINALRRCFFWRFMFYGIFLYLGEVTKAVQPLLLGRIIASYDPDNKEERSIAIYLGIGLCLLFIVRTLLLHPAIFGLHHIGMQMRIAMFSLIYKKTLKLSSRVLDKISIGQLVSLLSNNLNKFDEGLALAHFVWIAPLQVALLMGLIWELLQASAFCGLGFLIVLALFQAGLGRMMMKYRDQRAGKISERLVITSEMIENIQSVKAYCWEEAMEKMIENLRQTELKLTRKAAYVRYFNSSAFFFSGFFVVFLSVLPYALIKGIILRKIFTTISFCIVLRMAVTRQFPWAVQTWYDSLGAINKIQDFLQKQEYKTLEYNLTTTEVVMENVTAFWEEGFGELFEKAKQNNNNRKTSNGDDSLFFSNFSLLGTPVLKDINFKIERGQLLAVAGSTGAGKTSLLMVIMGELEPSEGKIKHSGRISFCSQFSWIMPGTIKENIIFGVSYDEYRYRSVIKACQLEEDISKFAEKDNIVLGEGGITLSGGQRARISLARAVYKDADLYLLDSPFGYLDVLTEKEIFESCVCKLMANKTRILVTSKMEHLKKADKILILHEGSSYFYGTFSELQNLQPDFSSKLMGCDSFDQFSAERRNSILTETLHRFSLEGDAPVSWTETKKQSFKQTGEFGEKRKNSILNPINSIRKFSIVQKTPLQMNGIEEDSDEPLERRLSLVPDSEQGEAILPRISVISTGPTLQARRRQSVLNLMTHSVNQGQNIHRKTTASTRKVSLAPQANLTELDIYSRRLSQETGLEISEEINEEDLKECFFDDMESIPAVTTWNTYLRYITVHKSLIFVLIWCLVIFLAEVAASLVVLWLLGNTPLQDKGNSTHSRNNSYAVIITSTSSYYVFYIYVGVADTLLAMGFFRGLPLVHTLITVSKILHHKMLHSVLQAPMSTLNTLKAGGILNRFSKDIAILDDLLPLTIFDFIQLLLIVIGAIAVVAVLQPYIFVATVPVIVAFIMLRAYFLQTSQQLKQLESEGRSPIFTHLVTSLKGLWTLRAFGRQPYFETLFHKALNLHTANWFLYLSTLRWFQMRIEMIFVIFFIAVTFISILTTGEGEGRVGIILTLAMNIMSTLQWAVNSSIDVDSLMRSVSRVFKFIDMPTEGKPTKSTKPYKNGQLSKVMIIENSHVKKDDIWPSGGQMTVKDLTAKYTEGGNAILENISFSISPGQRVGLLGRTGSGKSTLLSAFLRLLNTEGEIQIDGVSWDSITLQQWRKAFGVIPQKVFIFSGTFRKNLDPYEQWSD
T11 sequence (P13569 whole entry V520F): as the sequence (P13569 whole entry N1303K) above, with V520F, K1303N counted along it
T3 sequence (P13569 whole entry M1101K): as the sequence (P13569 whole entry N1303K) above, with M1101K, K1303N counted along it
T1 sequence (P13569 whole entry L1077P): as the sequence (P13569 whole entry N1303K) above, with L1077P, K1303N counted along it
T12 sequence (P13569 whole entry W1282L): as the sequence (P13569 whole entry N1303K) above, with W1282L, K1303N counted along it
T5 sequence (P13569 1-1161 limits assumed): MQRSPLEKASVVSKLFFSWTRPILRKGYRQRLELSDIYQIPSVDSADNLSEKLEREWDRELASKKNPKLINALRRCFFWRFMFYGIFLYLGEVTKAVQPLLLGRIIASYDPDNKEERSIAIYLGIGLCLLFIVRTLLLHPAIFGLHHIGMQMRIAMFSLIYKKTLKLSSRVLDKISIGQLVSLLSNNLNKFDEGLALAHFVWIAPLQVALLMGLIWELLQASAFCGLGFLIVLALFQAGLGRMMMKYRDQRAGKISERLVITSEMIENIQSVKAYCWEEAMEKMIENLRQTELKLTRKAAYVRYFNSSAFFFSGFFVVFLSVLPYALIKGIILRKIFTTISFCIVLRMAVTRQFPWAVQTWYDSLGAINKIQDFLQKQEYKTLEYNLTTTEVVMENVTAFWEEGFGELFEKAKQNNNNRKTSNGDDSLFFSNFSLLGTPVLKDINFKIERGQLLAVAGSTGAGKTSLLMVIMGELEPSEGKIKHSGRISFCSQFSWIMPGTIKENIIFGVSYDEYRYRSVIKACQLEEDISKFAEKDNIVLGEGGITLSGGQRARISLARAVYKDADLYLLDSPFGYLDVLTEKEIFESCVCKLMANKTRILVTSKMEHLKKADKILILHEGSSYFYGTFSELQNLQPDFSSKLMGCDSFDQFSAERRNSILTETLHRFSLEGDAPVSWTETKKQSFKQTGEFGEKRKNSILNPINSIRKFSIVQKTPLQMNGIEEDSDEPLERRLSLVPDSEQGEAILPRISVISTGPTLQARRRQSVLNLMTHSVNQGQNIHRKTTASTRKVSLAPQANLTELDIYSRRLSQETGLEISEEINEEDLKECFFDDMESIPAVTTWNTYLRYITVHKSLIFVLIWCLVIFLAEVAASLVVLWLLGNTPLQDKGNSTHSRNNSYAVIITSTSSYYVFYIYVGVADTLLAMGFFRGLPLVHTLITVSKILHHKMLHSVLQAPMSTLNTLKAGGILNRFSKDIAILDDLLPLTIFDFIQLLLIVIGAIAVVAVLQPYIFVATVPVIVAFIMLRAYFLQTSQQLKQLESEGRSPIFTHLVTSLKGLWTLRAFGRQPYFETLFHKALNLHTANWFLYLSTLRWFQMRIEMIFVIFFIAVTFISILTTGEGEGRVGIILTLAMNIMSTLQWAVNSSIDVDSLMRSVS
T8 sequence (P13569 whole entry W1282C): as the sequence (P13569 whole entry N1303K) above, with W1282C, K1303N counted along it

In the case of `CCCCn1cc(S(=O)(=O)Nc2ccc(CC)cc2)c2cccnc21` [ASP-11, 1-butyl-N-(4-ethylphenyl)-1H-pyrrolo[2,3-b]pyridine-3-sulfonamide], the “short-circuit current response” value in experiment [1] is “absence of response”; in [2], “absence of response”; in experiment [3], “absence of response”; in [4], “absence of response”; in [5], “did not respond”; in experiment [7] it was “no response”. Further, in experiment [14], the “short-circuit current response” value is “absence of response”. In [6] (20 μM forskolin, 5 μM VX-770, 20 μM test potentiator), the “short-circuit current response when added after VX-770” value is given as “synergy”. The “activation by two Class II potentiators added together” value in [6] (W1282Xpot-C01 and ASP-11, 20 μM each, no Class I potentiator) is given as “little activation”. Further, the “improvement of chloride channel function compared with VX-770 alone” value in [8] (ASP-11 in combination with VX-770) was roughly 50%. The “activation of G551D-CFTR” value in [8] (previously shown) is listed as “activates G551D-CFTR”. For the same compound, the figures for the “short-circuit current effect additional to forskolin” value in experiment [9] and in experiment [15] were “significant further effects” and “little additional”, respectively. The “increase of chloride current compared with VX-770 alone” value in [10] and in experiment [11] was roughly 8 fold throughout. For the same compound, the “increase of chloride current compared to VX-770” value in experiment [12] and in experiment [13] was 3-9 fold each time.

Source of the values: patent US20220323425A1, “CO-POTENTIATORS FOR THERAPY OF CYSTIC FIBROSIS CAUSED BY MINIMAL FUNCTION CFTR MUTANTS” (THE REGENTS OF THE UNIVERSITY OF CALIFORNIA, priority 2019, published 2022).
